In brackets after ≈: the same amount, converted by molar mass.
Tests used:
[1] = system: MRSA (MW2); assay: Oxacillin MIC quoted for the flow cell experiment; type: cell-based; conditions: Staphylococcus aureus
[2] = system: MSSA (Sanger 476) and MRSA (MW2) strains; assay: Single-channel flow cell, immobilized cells under shear and lysostaphin stress with oxacillin, Sytox green staining; type: cell-based, Staphylococcus aureus; conditions: 10 μg/mL oxacillin, 0.6 ng/mL lysostaphin, ~4200 s^-1 shear rate for 15 mins after 40 min pretreatment with lysostaphin and shear; 0.5 μM Sytox green
Method: The Staphylococcus aureus (MRSA strain MW2 and MSSA strain Sanger 476) were grown to log phase in Mueller-Hinton broth with 2% sodium chloride (MH2) and then immobilized on epoxide slides, which is a non-specific method for immobilizing bacteria and can be used instead of the adhesin mechanism. To immobilize the bacteria, 100 μL of culture was placed on the epoxide slide (Super-epoxy II, Telechem International) and incubated at 37° C. for 45 min in a humid environment. The immobilized cells were briefly rinsed with water and Block-it buffer (Telechem International) to quench any remaining un-reacted epoxide bonds.
On two separate slides, MSSA (Sanger 476) and MRSA (MW2) strains were immobilized. The cells were assembled in channels of ˜300 μm width and stained with 0.5 μM Sytox green in MH2. The immobilized cells were stressed with 0.6 ng/mL lysostaphin, ˜4200 s^−1 shear rate, and 10 μg/mL oxacillin for 15 mins after a 40 min pretreatment with lysostaphin and shear alone. The lysostaphin concentration was chosen to be lower than the MIC (˜1 ng/mL).

[3] = system: MW2 methicillin resistant cells; assay: 4-channel flow cell, Sytox Green fluorescence of immobilized cells; type: cell-based, Staphylococcus aureus; conditions: oxacillin 50 μg/mL or lysostaphin 0.7 ng/mL alone, flow rate 1 mL/min, 0.5 μM Sytox Green
Method: (§1) This 4-channel arrangement was used to test a single strain of bacteria in the presence or absence of chemical stress (e.g., lysostaphin). The flow rate used in the channels was 1 mL/min and 0.5 μM Sytox Green was used to stain damaged or dying cells.
(§2) In each experiment, bacteria in two channels were exposed to 0.7 ng/mL lysostaphin (lyso) in the presence or absence of the antibiotic oxacillin (oxa; 50 μg/mL). The four experimental groups are as follows: (i) control (no oxa; no lyso), (ii) lyso only; (iii) oxa only, and (iv) lyso and oxa together.

[4] = system: Sanger 476 methicillin sensitive cells; assay: as above; type: cell-based, Staphylococcus aureus; conditions: flow rate 1 mL/min, 0.5 μM Sytox Green
Method: as §1, §2

[5] = system: MSSA (Sanger 476); assay: Oxacillin MIC quoted for the flow cell experiment; type: cell-based; conditions: Staphylococcus aureus
[6] = system: Staphylococcus aureus; assay: Lysostaphin MIC quoted for the flow cell experiment; type: cell-based; conditions: strain not stated; quoted to justify 0.6 ng/mL lysostaphin
[7] = system: strain MW2; assay: Classical microdilution broth MIC of lysostaphin; type: cell-based, Staphylococcus aureus; conditions: MHB, 5×10^5 CFU/mL, overnight incubation at 37° C.
Source text: (§3) A classical microdilution broth method was used to determine the lysostaphin minimum inhibitory concentrations for strains MW2 and Sanger 476 (Jones, R. N., et al. Manual of clinical microbiology, A. Balows, J. W. J. Hausler, and H. J. Shadomy, Editors. 1985, American Society for Microbiology: Washington D.C. p. 972-977). Briefly, logarithmic-phase bacteria were cultivated in Mueller-Hinton cation-adjusted broth (MHB) and adjusted to a concentration of 1×10^6 CFU/mL. Sterile microtiter plates containing 100 μl of lysostaphin diluted in MHB were inoculated with 100 μl of the bacterial suspension to yield 5×10^5 CFU/mL. After overnight incubation at 37° C. overnight, the MIC for both strains was 0.06 μg/mL.

[8] = system: strain Sanger 476; assay: Classical microdilution broth MIC of lysostaphin; type: cell-based, Staphylococcus aureus; conditions: MHB, 5×10^5 CFU/mL, overnight incubation at 37° C.
Source text: as §3

Cc1onc(-c2ccccc2)c1C(=O)N[C@@H]1C(=O)N2[C@@H]1SC(C)(C)[C@@H]2C(=O)O [oxacillin]
MIC [1]: > 16 µg/mL | cell death, MSSA compared with MRSA [2]: More MSSA cells died during the course of the experiment than MRSA cells | fluorescence compared to control MW2 cells [3]: no substantial increase | time point at which fluorescence was increased ([4]; oxacillin 50 μg/mL with or without 0.7 ng/mL lysostaphin): approximately 20 min | MIC [5]: 0.5 µg/mL (≈ 1.25 µM)

lysostaphin
MIC [6]: ~0.001 µg/mL | minimum inhibitory concentration (MIC) [7]: 0.06 µg/mL | minimum inhibitory concentration (MIC) [8]: 0.06 µg/mL | fluorescence compared to control MW2 cells [3]: small increase | level of fluorescence compared with the control channel ([4]; 0.7 ng/mL lysostaphin): not substantially different
